Key:
[1] = biological target: Cathepsin S (Homo sapiens, UniProt P25774); test: (§1) Enzyme Assay: Recombinant human cathepsins (CatS, CatK, CatL) were purchased from a Enzo Life Sciences. All assays were carried out in 96-well format using a buffer of 50 mM KH2PO4, 50 mM NaCl, 2 mM EDTA, 0.5 mM DTT and 1% Triton-X-100, pH 6.5 for Cathepsin S and a buffer of 50 mM NaOAc, 10 mM EDTA, 1 mM DTT and 0.01% Triton-X-100, pH 5.5 for CatK/L/B. For CatS, the enzyme (0.0007 mU/well) was incubated with fluorogeninc substrate (Z-VVR-AMC, 5 μM) at RT for 10 min. For CatK the enzyme (0.00175 mU/well) was incubated with fluorogeninc substrate (Z-FR-AMC, 40 μM) at RT for 10 min. For CatL, the enzyme (0.000874 mU/well) was incubated with fluorogeninc substrate (Z-VVR-AMC, 40 μM) at RT for 10 min. Flourogenic substrate turnover was detected using a microplate reader (Synergy H4, BioTek). Ki values were calculated using the Cheng Prusoff equation (Cheng & Prosoff 1973).
Cathepsin S, sequence (P25774 whole entry): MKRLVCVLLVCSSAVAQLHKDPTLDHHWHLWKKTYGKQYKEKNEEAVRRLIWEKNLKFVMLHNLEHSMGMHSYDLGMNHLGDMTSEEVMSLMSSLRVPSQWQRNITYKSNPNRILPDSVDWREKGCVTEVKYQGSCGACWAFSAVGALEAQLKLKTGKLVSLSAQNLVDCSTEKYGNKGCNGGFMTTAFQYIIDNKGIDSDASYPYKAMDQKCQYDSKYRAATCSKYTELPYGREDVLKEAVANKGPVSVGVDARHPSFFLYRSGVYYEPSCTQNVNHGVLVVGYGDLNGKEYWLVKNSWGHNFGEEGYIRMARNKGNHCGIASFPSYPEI

[2] = biological target: T1, Cathepsin K (Homo sapiens, UniProt P43235); test: as §1
T1 sequence (P43235 whole entry): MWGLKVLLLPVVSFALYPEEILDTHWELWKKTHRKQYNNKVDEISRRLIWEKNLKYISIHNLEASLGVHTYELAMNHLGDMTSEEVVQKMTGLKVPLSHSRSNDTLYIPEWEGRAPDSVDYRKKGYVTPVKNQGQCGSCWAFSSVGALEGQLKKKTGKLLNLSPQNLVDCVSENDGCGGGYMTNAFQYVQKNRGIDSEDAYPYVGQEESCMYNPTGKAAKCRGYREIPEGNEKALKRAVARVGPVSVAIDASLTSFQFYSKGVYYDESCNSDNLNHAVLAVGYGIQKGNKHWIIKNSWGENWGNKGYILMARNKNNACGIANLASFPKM

Ki [1]	Ki [2]	Structure (SMILES)
699 nM	262 nM	O=C(N[C@H](C(=O)N1C[C@H](Cl)[C@H]2OCC(=O)[C@H]21)C1CCCCC1)c1ccc(-c2ccncn2)o1
238 nM	9 nM	Cc1nccc(-c2ccc(C(=O)N[C@H](C(=O)N3C[C@H](Cl)[C@H]4OCC(=O)[C@H]43)C3CCCCC3)s2)n1
344 nM	16 nM	COc1ccc(-c2ccc(C(=O)N[C@H](C(=O)N3C[C@H](Cl)[C@H]4OCC(=O)[C@H]43)C3CCCCC3)s2)nn1

Second part, the compound before the results:

Structure (SMILES)	Ki [1]	Ki [2]
O=C(N[C@H](C(=O)N1C[C@H](Cl)[C@H]2OCC(=O)[C@H]21)C1CCCCC1)c1cnc(-c2ccnnc2)o1	527 nM	278 nM
O=C(N[C@H](C(=O)N1C[C@H](Cl)[C@H]2OCC(=O)[C@H]21)C1CCCCC1)c1ccc(-c2cccnc2)o1	612 nM	54 nM
O=C(N[C@H](C(=O)N1C[C@H](Cl)[C@H]2OCC(=O)[C@H]21)C1CCCCC1)c1nnc(-c2ccncc2)s1	–	14 nM
